Results published in patent US8426448B2, “1,5-diphenyl-pyrrolidin-2-one compounds as CB-1 ligands” (Eli Lilly and Company, priority 2008, dated 2013).
Where a name gives a salt, the structure may show the parent alone.

Columns and labels:
[1] = target: T1, hCB-2 (Homo sapiens, UniProt P34972); assay: hCB2-Sf9 antagonist mode SPA GTP-γ-35S binding assay; assay type: biochemical; details: antagonist mode vs methanandamide; read-out: hCB-2 SPA GTPγS Sf9 Membrane Antagonist Kb
T1 construct: purchased Perkin Elmer, Boston, Mass; host or cells: Sf9 cell membranes
T1 sequence (P34972 whole entry): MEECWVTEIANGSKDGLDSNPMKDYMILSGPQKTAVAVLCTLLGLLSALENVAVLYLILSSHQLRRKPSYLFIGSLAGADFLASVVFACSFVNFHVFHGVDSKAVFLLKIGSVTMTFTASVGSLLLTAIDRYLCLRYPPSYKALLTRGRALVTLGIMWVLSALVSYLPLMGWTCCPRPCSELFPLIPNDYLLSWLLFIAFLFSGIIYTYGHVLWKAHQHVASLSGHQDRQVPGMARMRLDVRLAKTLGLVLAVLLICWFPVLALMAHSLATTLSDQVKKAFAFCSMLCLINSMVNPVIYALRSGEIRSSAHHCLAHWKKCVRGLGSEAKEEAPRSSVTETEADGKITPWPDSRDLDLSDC
Description: (§1) Compounds of the present invention may be tested for functional activity at the CB-1 and CB-2 receptors in both agonist and antagonist modes using SPA (Scintillation Proximity Assay) based GTP-γ-^35S binding assays. All assay components are prepared in assay buffer (20 mM HEPES, 100 mM NaCl, 5 mM MgCl2, pH 7.4) at room temperature. Semi-log dilutions of test compound are prepared in assay buffer containing BSA (0.125% final conc.) for the agonist mode assays. For the antagonist mode assays, test compounds are prepared in the same manner but also include an 80% efficacious dose of a full agonist (methanandamide). GTP-γ^35S binding for the antagonist assay may be measured in a 96 well format using a modification of an antibody capture technique previously described. (DeLapp, N W, et al. (1999) J Pharmacol Exp Ther 289:946-955.) The CB-2 receptor agonist activity may be measured using a similar method using hCB2-Sf9 membranes. The CB-1 receptor agonist activity may be measured using a whole membrane capture technique using hCB1-CHO membranes. All incubations are done at room temperature. […]
(§2) Data are analyzed as follows: Background is subtracted from all wells. […] Percent antagonist inhibition is calculated by first normalizing the data to the signal generated by a saturating concentration of the full agonist (methanandamide). Then the data are analyzed using a 4-parameter logistic reduced fit (Activity Base™ and XLFit3™ from IDBS, Emeryville, Calif.). Kb values are determined using a modification of the Cheng-Prusoff relationship: Kb=IC50/(1+[agonist]/EC50), where “IC50” is determined from a four parameter fit of displacement curves, “[agonist]” is the agonist challenge concentration (nM), and “EC50” is determined from a four parameter fit of a full agonist concentration response curve (Cheng and Prusoff 1973). Mean Kb values are calculated as a mean of at least three independent determinations±standard error of the mean (SEM). […]

[2] = target: T2, hCB-1 (Homo sapiens, UniProt P21554); assay: hCB1-CHO antagonist mode SPA GTP-γ-35S binding assay; assay type: biochemical; parameters: purchased Applied Cell Sciences, Rockville, Md; host or cells: CHO cell membranes; details: antagonist mode vs methanandamide; read-out: hCB-1 SPA GTPγS CHO Membrane Antagonist Kb
T2 sequence (P21554 whole entry): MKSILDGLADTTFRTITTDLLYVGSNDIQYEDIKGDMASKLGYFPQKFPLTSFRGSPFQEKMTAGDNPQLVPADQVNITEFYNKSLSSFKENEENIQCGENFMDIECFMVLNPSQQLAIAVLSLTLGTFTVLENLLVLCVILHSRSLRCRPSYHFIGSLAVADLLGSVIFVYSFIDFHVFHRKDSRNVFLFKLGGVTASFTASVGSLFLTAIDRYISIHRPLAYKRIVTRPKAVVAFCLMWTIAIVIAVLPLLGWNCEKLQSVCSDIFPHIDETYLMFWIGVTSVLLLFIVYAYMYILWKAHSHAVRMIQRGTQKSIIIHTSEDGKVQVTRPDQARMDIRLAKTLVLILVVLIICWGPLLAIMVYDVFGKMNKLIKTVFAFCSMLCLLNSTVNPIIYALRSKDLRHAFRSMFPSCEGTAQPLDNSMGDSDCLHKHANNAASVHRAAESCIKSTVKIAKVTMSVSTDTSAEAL
Description: (§3) Compounds of the present invention may be tested for functional activity at the CB-1 and CB-2 receptors in both agonist and antagonist modes using SPA (Scintillation Proximity Assay) based GTP-γ-^35S binding assays. All assay components are prepared in assay buffer (20 mM HEPES, 100 mM NaCl, 5 mM MgCl2, pH 7.4) at room temperature. Semi-log dilutions of test compound are prepared in assay buffer containing BSA (0.125% final conc.) for the agonist mode assays. For the antagonist mode assays, test compounds are prepared in the same manner but also include an 80% efficacious dose of a full agonist (methanandamide). GTP-γ^35S binding for the antagonist assay may be measured in a 96 well format using a modification of an antibody capture technique previously described. (DeLapp, N W, et al. (1999) J Pharmacol Exp Ther 289:946-955.) The CB-2 receptor agonist activity may be measured using a similar method using hCB2-Sf9 membranes. The CB-1 receptor agonist activity may be measured using a whole membrane capture technique using hCB1-CHO membranes. All incubations are done at room temperature.
(§4) hCB1-CHO or rCB1-CHO membranes (Applied Cell Sciences, Rockville, Md.) and GDP (1 μM final) are added to ice cold assay buffer and homogenized. […] Plates are then centrifuged at 700×g for 10 min. and the radioactivity counted.
(§5) Data are analyzed as follows: Background is subtracted from all wells. […] Percent antagonist inhibition is calculated by first normalizing the data to the signal generated by a saturating concentration of the full agonist (methanandamide). Then the data are analyzed using a 4-parameter logistic reduced fit (Activity Base™ and XLFit3™ from IDBS, Emeryville, Calif.). Kb values are determined using a modification of the Cheng-Prusoff relationship: Kb=IC50/(1+[agonist]/EC50), where “IC50” is determined from a four parameter fit of displacement curves, “[agonist]” is the agonist challenge concentration (nM), and “EC50” is determined from a four parameter fit of a full agonist concentration response curve (Cheng and Prusoff 1973). […]

[3] = target: T2, hCB-1; assay: hCB1-Sf9 antagonist mode SPA GTP-γ-35S binding assay; assay type: biochemical; parameters: purchased Applied Cell Sciences, Rockville, Md; details: Sf9 membrane 22.7 μg; antagonist mode vs methanandamide; read-out: hCB-1 SPA GTPγS Sf9 Membrane 22.7 μg Antagonist Kb
Description: as §1, §2

[4] = target: T1, hCB-2; assay: hCB2-Sf9 agonist mode SPA GTP-γ-35S binding assay; assay type: biochemical; details: read-out: hCB-2 SPA GTPγS Sf9 Membrane Agonist Relative EC50
Description: as §1
Data are analyzed as follows: Background is subtracted from all wells. […] Percent antagonist inhibition is calculated by first normalizing the data to the signal generated by a saturating concentration of the full agonist (methanandamide). […]

[5] = target: T3, rCB-1 (Rattus norvegicus, UniProt P20272); assay: rCB1-CHO antagonist mode SPA GTP-γ-35S binding assay; assay type: biochemical; details: antagonist mode vs methanandamide; read-out: rCB-1 SPA GTPγS CHO Membrane Antagonist Kb
T3 construct: purchased Applied Cell Sciences, Rockville, Md; host or cells: CHO cell membranes
T3 sequence (P20272 whole entry): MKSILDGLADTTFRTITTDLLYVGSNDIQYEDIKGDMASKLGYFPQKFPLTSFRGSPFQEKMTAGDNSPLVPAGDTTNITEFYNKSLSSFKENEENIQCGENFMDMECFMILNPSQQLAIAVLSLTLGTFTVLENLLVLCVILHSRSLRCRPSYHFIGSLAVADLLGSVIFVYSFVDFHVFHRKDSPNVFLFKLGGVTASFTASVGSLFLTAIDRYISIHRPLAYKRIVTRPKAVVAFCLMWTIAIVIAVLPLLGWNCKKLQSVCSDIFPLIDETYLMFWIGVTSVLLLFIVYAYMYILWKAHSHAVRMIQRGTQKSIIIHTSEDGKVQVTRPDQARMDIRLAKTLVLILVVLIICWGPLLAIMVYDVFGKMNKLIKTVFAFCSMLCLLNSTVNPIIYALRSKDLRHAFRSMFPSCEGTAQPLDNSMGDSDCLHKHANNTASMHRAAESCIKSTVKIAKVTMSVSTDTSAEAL
Description: as §3, §4, §5

[6] = target: T4, CYP2C9 (Homo sapiens, UniProt P11712); assay: Human CYP fingerprinting, sulfaphenazole inhibition; assay type: in vitro ADME; details: 4 μM, human liver microsomes, 30 min, 5 μM sulfaphenazole
T4 construct: pooled, mixed gender, human liver microsomes; from tissue; host or cells: pooled, mixed gender human liver microsomes
T4 sequence (P11712 whole entry): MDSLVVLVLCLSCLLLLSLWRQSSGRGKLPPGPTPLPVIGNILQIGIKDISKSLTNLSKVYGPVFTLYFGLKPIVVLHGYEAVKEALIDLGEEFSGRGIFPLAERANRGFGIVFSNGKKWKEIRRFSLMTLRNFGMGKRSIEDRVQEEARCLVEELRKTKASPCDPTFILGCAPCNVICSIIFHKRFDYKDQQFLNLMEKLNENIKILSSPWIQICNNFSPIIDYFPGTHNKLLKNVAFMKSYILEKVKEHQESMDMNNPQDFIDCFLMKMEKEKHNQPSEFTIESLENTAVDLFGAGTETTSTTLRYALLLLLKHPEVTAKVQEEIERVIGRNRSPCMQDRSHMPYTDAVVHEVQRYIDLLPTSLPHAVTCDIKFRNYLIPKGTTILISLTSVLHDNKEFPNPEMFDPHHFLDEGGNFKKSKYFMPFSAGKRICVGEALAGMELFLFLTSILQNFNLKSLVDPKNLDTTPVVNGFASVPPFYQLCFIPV
Description: (§6) CYP fingerprinting is well established technique and is used as an indication of potential risk of drug-drug interactions in the pharmaceutical sciences. Compounds of the present invention may be assayed by well known methods, essentially as follows: Compounds are incubated at 37° C. at a final concentration of 4 μM with pooled, mixed gender, human liver microsomes and 1 mM NADPH (Nicotine Adenine Dinucleotide Phosphate) (final conc.) for 0 and 30 min. without any CYP inhibitor and with each CYP inhibitor in separate incubations for 30 min. Each inhibitor is specific for an individual cytochrome P450. The specific inhibitors used for CYPs 2C9, 2D6 and 3A were sulfaphenazole, quinidine and ketoconazole, respectively. Ketoconazole (CYP3A) is made up at 25 mM in DMSO and then diluted in buffer to a final concentration of 10 μM. Quinidine (CYP2D6) is made up at 5 mM in 50/50 acetonitrile/water and then diluted in buffer to a final concentration of 10 μM. Sulfaphenazole (CYP2C9) is made up at 100 mM in DMSO and then diluted in buffer to a final concentration of 5 μM. Samples are analyzed by LC-MS in positive or negative electrospray mode using a Waters Acquity Ultra Performance LC coupled to a MicroMass Q-T of-2 mass spectrometer.
(§7) Data are analyzed using MetaboLynx™ version 4.1. […]

[7] = target: T2, hCB-1; assay: hCB1-CHO agonist mode SPA GTP-γ-35S binding assay; assay type: biochemical; parameters: purchased Applied Cell Sciences, Rockville, Md; host or cells: CHO cell membranes; details: for EC50: inverse agonism, read-out: hCB-1 SPA GTPγS CHO Membrane Agonist Relative EC50 inverse
Description: as §3
hCB1-CHO membrane, GDP (1 μM final conc.), and saponin (10 μg/mL final conc., Sigma, St Louis, Mo.) are combined and prepared on ice as for the antagonist assays, above. Diluted test compounds, GTP-γ-^35S ([…] final conc.) and membranes are combined in the assay plate and incubated for 30 min. Then 1 mg/well Wheatgerm Agglutinin SPA beads (GE Healthcare, Piscataway, N.J.) are added, plates are sealed and vortexed and incubate for 1 hr. before spinning and counting in the same fashion as for the antagonist assays, above.
Data are analyzed as follows: Background is subtracted from all wells. Percent agonist efficacy is determine by normalizing agonist/inverse agonist dose response data to the response obtained for a full agonist (methanandamide). Percent antagonist inhibition is calculated by first normalizing the data to the signal generated by a saturating concentration of the full agonist (methanandamide). Then the data are analyzed using a 4-parameter logistic reduced fit (Activity Base™ and XLFit3™ from IDBS, Emeryville, Calif.). Kb values are determined using a modification of the Cheng-Prusoff relationship: Kb=IC50/(1+[agonist]/EC50), where “IC50” is determined from a four parameter fit of displacement curves, “[agonist]” is the agonist challenge concentration (nM), and “EC50” is determined from a four parameter fit of a full agonist concentration response curve (Cheng and Prusoff 1973). Mean Kb values are calculated as a mean of at least three independent determinations±standard error of the mean (SEM). […]

[8] = target: T5, CYP2D6 (Homo sapiens, UniProt P10635); assay: Human CYP fingerprinting, quinidine inhibition; assay type: in vitro ADME; details: 4 μM, human liver microsomes, 30 min, 10 μM quinidine
T5 construct: pooled, mixed gender, human liver microsomes; from tissue; host or cells: pooled, mixed gender human liver microsomes
T5 sequence (P10635 whole entry): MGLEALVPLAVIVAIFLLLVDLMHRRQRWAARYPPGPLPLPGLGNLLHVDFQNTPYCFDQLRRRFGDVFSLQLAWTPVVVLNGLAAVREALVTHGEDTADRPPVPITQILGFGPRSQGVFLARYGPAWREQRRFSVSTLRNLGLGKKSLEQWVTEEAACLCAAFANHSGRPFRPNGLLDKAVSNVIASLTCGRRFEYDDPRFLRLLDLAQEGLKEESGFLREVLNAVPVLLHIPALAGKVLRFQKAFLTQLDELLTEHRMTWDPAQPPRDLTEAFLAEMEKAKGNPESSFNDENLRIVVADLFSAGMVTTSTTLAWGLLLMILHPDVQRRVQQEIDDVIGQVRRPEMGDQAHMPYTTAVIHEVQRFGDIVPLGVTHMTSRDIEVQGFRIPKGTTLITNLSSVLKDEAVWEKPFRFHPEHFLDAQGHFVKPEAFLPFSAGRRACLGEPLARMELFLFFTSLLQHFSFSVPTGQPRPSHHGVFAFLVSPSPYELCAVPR
Description: as §6, §7

[9] = system: CYP3A; assay: Human CYP fingerprinting, ketoconazole inhibition; assay type: in vitro ADME; details: 4 μM, human liver microsomes, 30 min, 10 μM ketoconazole
Description: as §6, §7

[10] = system: Male NIH Swiss mice; assay: Forced swim test (FST); assay type: in vivo; details: mice, p.o., Dunett's Test (0.05) statistically significant
Excerpt: The forced swim test is a well established animal model for depression, anxiety and avolition (lack of motivation)(Porsolt, et al. Nature (1977) 266, 730) (J. M. Witkin et al., Trends Pharmacol Sci. 2005 26:609-17). It can also be used as a model for the treatment of negative symptoms of schizophrenia.
Male NIH Swiss mice (Harlan Sprague-Dawley) are housed 12 mice/cage for 7-10 days prior to testing. On the day of testing, mice weighing 25-30 g, are brought to the testing room at least 1 hr. prior to dosing. Mice are dosed (p.o.) at 6-8 min. intervals with either vehicle (1% CMC/0.5% SLS/0.08% povidone/0.05 antifoam for CB1 inverse agonists) or test compound and put it into a clean cage (4 mice/cage).
To test, mice are placed individually in clear plastic cylinders (about 10 cm diameter×25 cm height) filled to 6 cm with water at 22-25° C. for six min. The duration of immobility during the last 4 min. is recorded. A mouse is regarded as immobile when floating motionless or making only those movements necessary to keep its head above the water.
The immobility time (in seconds) is analyzed by ANOVA using Dunnett's test. The minimum effective dose (MED) is considered to be the lowest dose of test compound at which a statistically significant decrease in the immobility time is observed versus the vehicle control.

Kb [1] | Kb [2] | Kb [3] | EC50 [4] | Kb [5] | EC50 [7] | hCB-1 SPA GTPγS CHO Membrane Agonist % Relative Efficacy ([7]; normalized to full agonist methanandamide) | Risk of Drug Drug Interaction (DDI) CYP2D6 [8] | Risk of Drug Drug Interaction (DDI) CYP3A [9] | SMILES | Risk of Drug Drug Interaction (DDI) CYP2C9 [6] | minimum effective dose (MED) in forced swim test [10]
> 18400 nM | 0.179 nM | 1.77 nM | > 100000 nM | 0.238 nM | 0.943 nM | −97.3% | Low | Low | CC(C)(N[C@@H]1C[C@H](c2cccc(OC(F)(F)F)c2)N(c2ccc(C#N)cc2)C1=O)c1cccc(C(F)(F)F)n1 [27 Tosylate salt, 4-[(3R,5R)-3-[1-methyl-1-(6-trifluoromethyl-pyridin-2-yl)-ethylamino]-2-oxo-5-(3-trifluoromethoxy-phenyl)-pyrrolidin-1-yl]-benzonitrile tosylate] | low (a reduction in metabolite peak area of less than 30% (relative to the uninhibited control incubation) receives a designation of low risk of Drug Drug Interaction (DDI)) | –
> 11900 nM | 2.37 nM | 1.76 nM | > 100000 nM | 0.756 nM | 3.02 nM | – | – | – | CC(C)(N[C@@H]1C[C@H](c2cccc(C(F)(F)F)c2)N(c2ccc(OC(F)(F)F)cc2)C1=O)c1cccc(C(F)(F)F)n1 [Example 28, (3R,5R)-3-[1-Methyl-1-(6-trifluoromethyl-pyridin-2-yl)-ethylamino]-5-(3-trifluoromethyl-phenyl)-1-(4-trifluoromethoxy-phenyl)-pyrrolidin-2-one] | – | 10 mg/kg
